Measurements from PubChem BioAssay AID2060908 (Molecular Pharmacology Branch, DTP, NCI, 2025).
Blank lines part the entries; values can stand above or below the molecule they belong to.

Tested on: 186277-243-T-J2-PDC complex spheroids, viability
Assay: Anticancer human tumor 186277-243-T-J2-PDC patient-derived colon adenocarcinoma cell line growth inhibition [RAS]
Details: for viability, T/C: stronger effect = lower value
Text: RAS pathway inhibitors in Combinations in Complex Spheroids
A high-throughput screen of multi-cell type tumor spheroids was designed to identify active combinations of RAS pathway inhibitors and targeted small molecules. Complex spheroids include a stromal component modeled by human endothelial cells (HUVEC) and fibroblasts modeled by human mesenchymal stem cells (MSCs). The concentration ranges selected for each drug and investigational agent were based upon clinically achievable concentrations if the clinical Cmax of the agent was known.
Compounds. The drugs and investigational agents: abemaciclib (NSC768073), cobimetinib (NSC768068), divarasib (GDC6063, NSC841802), docetaxel (NSC628503), GDC-1971 (RLY-1971, NSC841576), gemcitabine (NSC613327), inavolisib (NSC800729), ipatasertib (NSC767898), KB-0742 (NSC834161), MRTX-1133 (NSC836407), osimertinib (NSC779217), RMC-4630 (NSC839698), RMC-6236 (NSC851965), RMC-6291 (NSC852671), Ro-3306 (NSC812927), sapanisertib (NSC764658), SN-38 (NSC673596), staurosporine (NSC755774), SY5609 (NSC837396), and tovorafenib (DAY101, NSC766906), were obtained from the National Cancer Institute (NCI) Developmental Therapeutics Program Chemical Repository. The FDA-approved anticancer drug set is available from the NCI Developmental Therapeutics Program. […] The stock solutions were prepared in dimethyl sulfoxide (DMSO, Sigma-Aldrich, St. Louis, MO, cat. D2650) at 800-fold the tested concentration and stored at -70 degrees C prior to their use. All drugs and investigational agents were tested over a range starting from a high concentration at or near the clinical Cmax and decreasing in half-log increments. If the clinical Cmax for an agent had not been determined, the highest concentration tested was 10 microM.
Cell Culture. All cells were maintained in an incubator at 37 degrees C and 5% CO2 with 95% humidity. The PDC lines were cultured according to standard operating procedures established by the NCI PDMR. All PDCs were thawed and cultured in Matrigel-coated flasks prepared with a working solution of 1X Ham's F-12 nutrient mix, without supplementation (Invitrogen, Waltham, MA, cat. 11765054), 100 U/mL penicillin-streptomycin (Invitrogen, cat. 15140122), and 2.5% Matrigel (Corning Inc., Corning, NY, cat. 354248) for the first three passages. The 362531-283-R-J2-PDC and 782815-120-R-J1-PDC lines were cultured in 6C/Colon 1B media, which includes advanced DMEM/F-12 (Thermo Fisher Scientific, cat. 12634028), 10 mM HEPES (Thermo Fisher Scientific, cat. 15630080), 1X GlutaMAX supplement (Thermo Fisher Scientific, cat. 35050061), 0.1 mg/mL primocin (InvivoGen, San Diego, CA, cat. ant-pm-2), 10% defined fetal bovine serum, heat inactivated (HyClone Laboratories Inc., Logan, UT, cat. SH30070.03HI), 50% L-WRN conditioned media (ATCC, cat. CRL-3276), 1.25 mM N-Acetyl-L-cysteine (Sigma-Aldrich, cat. A9165), 10 mM nicotinamide (Sigma-Aldrich, cat. N0636), 1X B-27 supplement (Thermo Fisher Scientific, cat. 17504044), 1X N-2 supplement (Thermo Fisher Scientific, cat. 17502048), 50 ng/mL human EGF (Thermo Fisher Scientific, cat. PHG0311), and 10 microM Y-27632 dihydrochloride (Tocris Bioscience, cat. 1254). The K12877-001-R-J1-PDC line was cultured in 6I media, which includes all 6C/Colon 1B media plus 10 ng/mL human FGF-10 (PeproTech, cat. 100-26), 1 ng/mL human FGF-2 (PeproTech, cat. 100-18B), 1 µM prostaglandin E2 (Tocris Bioscience, cat. 2296), […] hydrocortisone (Sigma-Aldrich, cat. H4001), and […] bovine insulin (Sigma-Aldrich, cat. I6634). The K86415-001-R-J1-PDC line was cultured in 6D media, which includes all 6C/Colon 1B media components minus the L-WRN conditioned media. The 485176-168-R4-J1-PDC was cultured in PANC media, which includes all 6C/Colon 1B media plus 100 ng/mL human FGF-10 (PeproTech, cat. 100-26), 500 nM SB-431542 (Selleckchem, cat. S1067), and 10 nM gastrin (Tocris Bioscience, cat. 3006). […]
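Also: spheroids exposed to compounds for 7 days before viability read.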

IC50 (curve of first compound, second compound 0.0316 µM): 97.4 nM
IC50 (curve of first compound, second compound 0.1 µM): 34.5 nM
IC50 (curve of first compound, second compound 0.316 µM): < 3.16 nM
IC50 (curve of first compound, second compound 1 µM): < 3.16 nM
IC50 (curve of first compound, second compound 3.16 µM): < 3.16 nM
IC50 (curve of first compound, second compound 10 µM): < 3.16 nM
SMILES: C=CC(=O)Nc1cc(Nc2nccc(-c3cn(C)c4ccccc34)n2)c(OC)cc1N(C)CCN(C)C + C#Cc1c(F)ccc2cc(O)cc(-c3ncc4c(N5CC6CCC(C5)N6)nc(OCC56CCCN5CC(F)C6)nc4c3F)c12
viability, T/C (second compound 0.0316 µM, first compound 0.00316 µM): 67.1%
viability, T/C (second compound 0.0316 µM, first compound 0.01 µM): 76.4%
viability, T/C (second compound 0.0316 µM, first compound 0.0316 µM): 69.8%
viability, T/C (second compound 0.0316 µM, first compound 0.1 µM): 37.6%
viability, T/C (second compound 0.0316 µM, first compound 0.316 µM): 40.9%
viability, T/C (second compound 0.0316 µM, first compound 1 µM): 15%
viability, T/C (second compound 0.1 µM, first compound 0.00316 µM): 51.4%
viability, T/C (second compound 0.1 µM, first compound 0.01 µM): 61.5%
viability, T/C (second compound 0.1 µM, first compound 0.0316 µM): 52.3%
viability, T/C (second compound 0.1 µM, first compound 0.1 µM): 28.4%
viability, T/C (second compound 0.1 µM, first compound 0.316 µM): 16.5%
viability, T/C (second compound 0.1 µM, first compound 1 µM): 8.02%
viability, T/C (second compound 0.316 µM, first compound 0.00316 µM): 23.2%
viability, T/C (second compound 0.316 µM, first compound 0.01 µM): 31.3%
viability, T/C (second compound 0.316 µM, first compound 0.0316 µM): 22.7%
viability, T/C (second compound 0.316 µM, first compound 0.1 µM): 13.8%
viability, T/C (second compound 0.316 µM, first compound 0.316 µM): 10.4%
viability, T/C (second compound 0.316 µM, first compound 1 µM): 6.25%
viability, T/C (second compound 1 µM, first compound 0.00316 µM): 15.8%
viability, T/C (second compound 1 µM, first compound 0.01 µM): 18%
viability, T/C (second compound 1 µM, first compound 0.0316 µM): 13.4%
viability, T/C (second compound 1 µM, first compound 0.1 µM): 11.4%
viability, T/C (second compound 1 µM, first compound 0.316 µM): 8.84%
viability, T/C (second compound 1 µM, first compound 1 µM): 6.02%
viability, T/C (second compound 3.16 µM, first compound 0.00316 µM): 10.4%
viability, T/C (second compound 3.16 µM, first compound 0.01 µM): 12.5%
viability, T/C (second compound 3.16 µM, first compound 0.0316 µM): 11.1%
viability, T/C (second compound 3.16 µM, first compound 0.1 µM): 8.84%
viability, T/C (second compound 3.16 µM, first compound 0.316 µM): 7.79%
viability, T/C (second compound 3.16 µM, first compound 1 µM): 4.87%
viability, T/C (second compound 10 µM, first compound 0.00316 µM): 9.04%
viability, T/C (second compound 10 µM, first compound 0.01 µM): 8.39%
viability, T/C (second compound 10 µM, first compound 0.0316 µM): 8.64%
viability, T/C (second compound 10 µM, first compound 0.1 µM): 7.72%
viability, T/C (second compound 10 µM, first compound 0.316 µM): 6.69%
viability, T/C (second compound 10 µM, first compound 1 µM): 3.95%

IC50 (curve of compound): < 31.6 nM
SMILES: CC(=O)OC12COC1CC(O)C1(C)C(=O)C(O)C3=C(C)C(OC(=O)C(O)C(NC(=O)OC(C)(C)C)c4ccccc4)CC(O)(C(OC(=O)c4ccccc4)C21)C3(C)C (centres undefined)
viability, T/C (compound 0.0316 µM): 8.57% [middle of 4 runs]
viability, T/C (compound 0.1 µM): 7.52% [middle of 4 runs]
viability, T/C (compound 0.316 µM): 7.03% [middle of 4 runs]
viability, T/C (compound 1 µM): 6.22% [middle of 4 runs]
viability, T/C (compound 3.16 µM): 5.95% [middle of 4 runs]
viability, T/C (compound 10 µM): 6.14% [middle of 4 runs]
